# Laboratory results as given in patent US11059780B2, “Substituted pyrrolidine compound and use thereof” (Takeda Pharmaceutical Company Limited, priority 2017, dated 2021).
# Target: T1, human orexin type 2 receptor (hOX2R) (Homo sapiens, UniProt O43614)
# T1 construct: expressed in transfected cells
# T1 sequence (O43614 1-444): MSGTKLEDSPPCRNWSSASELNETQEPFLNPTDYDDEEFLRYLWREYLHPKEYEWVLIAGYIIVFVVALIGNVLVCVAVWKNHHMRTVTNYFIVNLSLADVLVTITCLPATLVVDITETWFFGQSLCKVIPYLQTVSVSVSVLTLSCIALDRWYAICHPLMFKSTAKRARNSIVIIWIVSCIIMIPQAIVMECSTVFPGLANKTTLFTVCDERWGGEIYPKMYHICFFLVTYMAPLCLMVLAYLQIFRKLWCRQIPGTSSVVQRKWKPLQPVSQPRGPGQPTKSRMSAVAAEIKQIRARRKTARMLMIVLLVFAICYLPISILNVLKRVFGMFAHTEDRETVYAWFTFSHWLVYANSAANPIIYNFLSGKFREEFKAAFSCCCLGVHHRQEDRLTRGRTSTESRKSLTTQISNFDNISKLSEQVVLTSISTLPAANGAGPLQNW
# Experiment: Measurement of orexin type 2 receptor agonist activity (Fluo-4 calcium fluorescence, CHO cells forcibly expressing human OX2 receptor)
# Format: cell-based
# Conditions: test compound 3 μM, DMSO = 0%, orexin A (human) 10 nM = 100%
# From the text: Experimental Example 1: Obtainment of Cell Stably Expressing Human Orexin Type 2 Receptor (hOX2R)
# To obtain a cell clone stably expressing human orexin type 2 receptor, human orexin type 2 receptor cDNA was inserted into pcDNA3.1(+) plasmid vector (Invitrogen), and a plasmid DNA for expression of human orexin type 2 receptor (pcDNA3.1(+)/hOX2R) was cloned. The plasmid DNA was introduced into CHO-dhfr cell by an electroporation method, and human orexin type 2 receptor expressing clone cells were obtained by limiting dilution method by using G418 drug resistance as a selection marker.
# Experimental Example 2: Measurement of Orexin Type 2 Receptor Agonist Activity
# CHO cells forcibly expressing human OX2 receptor were seeded in each well of 384 well black transparent bottom plate (BD Falcon) at 7,500 cells/well, and cultured for one day in a 5% CO2 incubator at 37° C. After removal of the medium in the cell plate, assay buffer A containing a calcium indicator (HBSS (Life Technologies), 20 mM HEPES (Life Technologies), 0.1% BSA (Wako Pure Chemical Industries, Ltd.), 2.5 μg/mL Fluo-4 AM (DOJINDO Chemical), 0.08% Pluronic F127 (DOJINDO Chemical), 1.25 mM probenecid (DOJINDO Chemical)) was added at 30 μL/well. The plate was stood for 30 min in a 5% CO2 incubator at 37° C., and further stood at room temperature for 30 min. A test compound prepared by diluting with assay buffer B (HBSS, 20 mM HEPES, 0.1% BSA) was added at 10 μL/well, and the fluorescence value was measured by FDSSpCELL (Hamamatsu Photonics K.K.) every one sec for 1 min, and thereafter every two sec for 1 min 40 sec. The activity (%) of the test compound was calculated assuming that variation in the fluorescence value when DMSO was added instead of the test compound was 0% […], and variation in the fluorescence value when orexin A (human) (PEPTIDE INSTITUTE, INC.) was added at the final concentration of 10 nM was 100% […]. The activity of each compound at the concentration of 3 μM was shown below.
row,SMILES,"OX2R agonist activity (3 μM, %)"
1,"COc1cccc(C)c1C(=O)N1C[C@@H](OC)[C@H](Oc2cccc(NS(=O)(=O)N(C)C)c2)C1 [Example 135, N′-(3-(((3R,4R)-4-methoxy-1-(2-methoxy-6-methylbenzoyl)pyrrolidin-3-yl)oxy)phenyl)-N,N-dimethylsulfuric diamide]",90%
2,"CCc1cccc(C)c1C(=O)N1C[C@@H](OC)[C@H](Oc2cccc(CS(=O)(=O)N(CC)C3CCOCC3)c2)C1 [Example 158, N-ethyl-1-(3-(((3R,4R)-1-(2-ethyl-6-methylbenzoyl)-4-methoxypyrrolidin-3-yl)oxy)phenyl)-N-(tetrahydro-2H-pyran-4-yl)methanesulfonamide]",83%
3,"CO[C@@H]1CN(C(=O)c2cc(C)ccc2C)C[C@H]1Oc1cccc(NS(=O)(=O)N2CC3CC3C2)c1 (stereo partly drawn) [Example 109, N-(3-(((3R,4R)-1-(2,5-dimethylbenzoyl)-4-methoxypyrrolidin-3-yl)oxy)phenyl)-3-azabicyclo[3.1.0]hexane-3-sulfonamide]",84%
4,"CO[C@@H]1CN(C(=O)c2cc(C)ccc2C)C[C@H]1Oc1cccc(C(F)S(=O)(=O)N2CCCC2c2ccccn2)c1 (relative stereo) [Example 110, trans-(2,5-dimethylphenyl)(3-(3-(fluoro((2-(pyridin-2-yl)pyrrolidin-1-yl)sulfonyl)methyl)phenoxy)-4-methoxypyrrolidin-1-yl)methanone]",67%
5,"CO[C@@H]1CN(C(=O)c2cc(C)ccc2C)C[C@H]1Oc1cccc(CS(=O)(=O)N2CCCC2c2ccc(C)nc2C)c1 (relative stereo) [Example 123, trans-(2,5-dimethylphenyl)(3-(3-(((2-(2,6-dimethylpyridin-3-yl)pyrrolidin-1-yl)sulfonyl)methyl)phenoxy)-4-methoxypyrrolidin-1-yl)methanone]",102%
6,"CO[C@@H]1CN(C(=O)c2cc(C)ccc2C)C[C@H]1Oc1cccc(CS(=O)(=O)N2CCC23CCN(C(=O)OC(C)(C)C)C3)c1 (relative stereo) [Example 33, tert-butyl trans-1-((3-((1-(2,5-dimethylbenzoyl)-4-methoxypyrrolidin-3-yl)oxy)benzyl)sulfonyl)-1,6-diazaspiro[3.4]octane-6-carboxylate]",105%
7,"CCc1cccc(C)c1C(=O)N1C[C@@H](OC)[C@H](Oc2cccc(CS(=O)(=O)N(C)[C@@H]3C[C@H]4CC[C@@H](C3)O4)c2)C1 [Example 149, 1-(3-(((3R,4R)-1-(2-ethyl-6-methylbenzoyl)-4-methoxypyrrolidin-3-yl)oxy)phenyl)-N-methyl-N-((3-exo)-8-oxabicyclo[3.2.1]oct-3-yl)methanesulfonamide]",110%
8,"CO[C@@H]1CN(C(=O)c2cc(C)ccc2C)C[C@H]1Oc1cccc(NS(=O)(=O)N(C)Cc2cccnc2)c1 (relative stereo) [Example 61, trans-N′-(3-((1-(2,5-dimethylbenzoyl)-4-methoxypyrrolidin-3-yl)oxy)phenyl)-N-methyl-N-(pyridin-3-ylmethyl)sulfuric diamide]",87%
9,"CO[C@@H]1CN(C(=O)c2cc(C)ccc2C)C[C@H]1Oc1cccc(NS(=O)(=O)N2CCC23CCOC3)c1 (stereo partly drawn) [Example 30, N-(3-(((3R,4R)-1-(2,5-dimethylbenzoyl)-4-methoxypyrrolidin-3-yl)oxy)phenyl)-6-oxa-1-azaspiro[3.4]octane-1-sulfonamide]",68%
10,"COc1ccc(Cl)cc1C(=O)N1C[C@@H](OC)[C@H](Oc2cccc(CS(=O)(=O)N3CCCC3c3ccccn3)c2)C1 (relative stereo) [Example 108, trans-(5-chloro-2-methoxyphenyl)(3-methoxy-4-(3-(((2-(pyridin-2-yl)pyrrolidin-1-yl)sulfonyl)methyl)phenoxy)pyrrolidin-1-yl)methanone]",74%
11,"CO[C@@H]1CN(C(=O)c2cc(C)ccc2C)C[C@H]1Oc1cccc(CS(=O)(=O)N2CCC23CCOCC3)c1 (relative stereo) [Example 21, trans-(2,5-dimethylphenyl)(3-methoxy-4-(3-((7-oxa-1-azaspiro[3.5]non-1-ylsulfonyl)methyl)phenoxy)pyrrolidin-1-yl)methanone]",70%
12,"COc1cccc(C)c1C(=O)N1C[C@@H](OC)[C@H](Oc2cccc(NS(=O)(=O)N3CC4CC4C3)c2)C1 (stereo partly drawn) [Example 121, N-(3-(((3R,4R)-4-methoxy-1-(2-methoxy-6-methylbenzoyl)pyrrolidin-3-yl)oxy)phenyl)-3-azabicyclo[3.1.0]hexane-3-sulfonamide]",114%
13,"CCc1cccc(C)c1C(=O)N1C[C@@H](OC)[C@H](Oc2cccc(CS(=O)(=O)N(C)C3CCOCC3)c2)C1 (relative stereo) [Example 155, trans-1-(3-((-1-(2-ethyl-6-methylbenzoyl)-4-methoxypyrrolidin-3-yl)oxy)phenyl)-N-methyl-N-(tetrahydro-2H-pyran-4-yl)methanesulfonamide]",108%
14,"CO[C@@H]1CN(C(=O)c2cc(C)ccc2C)C[C@H]1Oc1cccc(C(C)S(=O)(=O)N(C)C2CCOCC2)c1 (relative stereo) [Example 143, trans-1-(3-((1-(2,5-dimethylbenzoyl)-4-methoxypyrrolidin-3-yl)oxy)phenyl)-N-methyl-N-(tetrahydro-2H-pyran-4-yl)ethanesulfonamide]",92%
15,"COC(=O)C1COCCN1S(=O)(=O)Cc1cccc(O[C@@H]2CN(C(=O)c3cc(C)ccc3C)C[C@H]2OC)c1 (relative stereo) [Example 12, methyl trans-4-((3-((1-(2,5-dimethylbenzoyl)-4-methoxypyrrolidin-3-yl)oxy)benzyl)sulfonyl)morpholine-3-carboxylate]",60%
16,"CO[C@@H]1CN(C(=O)c2cc(C)ccc2C)C[C@H]1Oc1cccc(CS(=O)(=O)N2CCCC2c2ccccc2Cl)c1 (relative stereo) [Example 37, trans-(3-(3-(((2-(2-chlorophenyl)pyrrolidin-1-yl)sulfonyl)methyl)phenoxy)-4-methoxypyrrolidin-1-yl)(2,5-dimethylphenyl)methanone]",86%
17,"COCC1CCCN1S(=O)(=O)Nc1cccc(O[C@@H]2CN(C(=O)c3cc(C)ccc3C)C[C@H]2OC)c1 (relative stereo) [Example 50, trans-N-(3-((1-(2,5-dimethylbenzoyl)-4-methoxypyrrolidin-3-yl)oxy)phenyl)-2-(methoxymethyl)pyrrolidine-1-sulfonamide]",87%
18,"CO[C@@H]1CN(C(=O)c2cc(C)ccc2C)C[C@H]1Oc1cccc(CS(=O)(=O)N2CCCC2c2nccs2)c1 (relative stereo) [Example 40, trans-(2,5-dimethylphenyl)(3-methoxy-4-(3-(((2-(1,3-thiazol-2-yl)pyrrolidin-1-yl)sulfonyl)methyl)phenoxy)pyrrolidin-1-yl)methanone]",79%
19,"CO[C@@H]1CN(C(=O)c2cc(C)ccc2C)C[C@H]1Oc1ccc(F)c(CS(=O)(=O)N2CCCC2c2ccccn2)c1 (relative stereo) [Example 87, trans-(2,5-dimethylphenyl)(3-(4-fluoro-3-(((2-(pyridin-2-yl)pyrrolidin-1-yl)sulfonyl)methyl)phenoxy)-4-methoxypyrrolidin-1-yl)methanone]",67%
20,"COc1ccccc1C1CCCN1S(=O)(=O)Nc1cccc(O[C@@H]2CN(C(=O)c3cc(C)ccc3C)C[C@H]2OC)c1 (relative stereo) [Example 66, trans-N-(3-((1-(2,5-dimethylbenzoyl)-4-methoxypyrrolidin-3-yl)oxy)phenyl)-2-(2-methoxyphenyl)pyrrolidine-1-sulfonamide]",72%
21,"CO[C@@H]1CN(C(=O)c2cc(C)ccc2C)C[C@H]1Oc1cccc(CS(=O)(=O)N(C)C2CCOC(C)(C)C2)c1 (relative stereo) [Example 156, trans-1-(3-((1-(2,5-dimethylbenzoyl)-4-methoxypyrrolidin-3-yl)oxy)phenyl)-N-(2,2-dimethyltetrahydro-2H-pyran-4-yl)-N-methylmethanesulfonamide]",92%
